# Laboratory results from paper PMC12638379, “An innovative approach to development of new pyrazolylquinolin-2-one hybrids as dual EGFR and BRAF^V600E inhibitors” (Molecular Diversity, 2025).
# Read-outs that look alike come from different tables or passages of the source.
# Assays:
# [1] = system: leukemia (MOLT-4) cell line; assay: MTT antiproliferative assay, MOLT-4; type: cell-based, human
# Protocol: After 24 h of culture incubation and supernatants discarded.
# [2] = MTT cytotoxicity on normal cell line WI-38; details: human, WI-38 normal cells, % viability
# [3] = system: normal cell line WI-38; assay: MTT cytotoxicity on normal cell line WI-38
# [4] = system: breast cancer (T47D) cell line; assay: MTT antiproliferative assay, T-47D
# In short: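 HOP-92, MOLT-4 and T-47D cells in DMEM/10% FBS/insulin exposed 24 h to serial 10-fold dilutions […]; MTT added 2–4 h, absorbance at 570 nm with 690 nm background subtraction. Percent viable cells gives IC50; GI50 is the average IC50 across the three lines.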
# [5] = system: NCI 60 cancer cell lines; assay: NCI anticancer screening over a panel of 60 cancer cells, single concentration 10 µM; type: cell-based, human; details: Homo sapiens, read-out: % Growth Inhibition (GI %)
# In short: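 Run under the NCI Compound Evaluation Branch protocol, each compound was tested once at 10 µM. The panel comprised 60 cancer cell lines of diverse tissue origin, including leukemia, lung, colon, CNS, renal, ovarian, breast and prostate.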
# [6] = biological target: T1, EGFR (Homo sapiens, UniProt P00533); assay: EGFR inhibitory assay; type: biochemical; details: for %inh: EGFR, unit not given
# T1 construct: EGFR cytoplasmic domain (EGFR-CD, amino acids 645–1186); His6 (N); made in house; host or cells: Sf-9 insect cells (baculovirus)
# T1 sequence (P00533 669-1210): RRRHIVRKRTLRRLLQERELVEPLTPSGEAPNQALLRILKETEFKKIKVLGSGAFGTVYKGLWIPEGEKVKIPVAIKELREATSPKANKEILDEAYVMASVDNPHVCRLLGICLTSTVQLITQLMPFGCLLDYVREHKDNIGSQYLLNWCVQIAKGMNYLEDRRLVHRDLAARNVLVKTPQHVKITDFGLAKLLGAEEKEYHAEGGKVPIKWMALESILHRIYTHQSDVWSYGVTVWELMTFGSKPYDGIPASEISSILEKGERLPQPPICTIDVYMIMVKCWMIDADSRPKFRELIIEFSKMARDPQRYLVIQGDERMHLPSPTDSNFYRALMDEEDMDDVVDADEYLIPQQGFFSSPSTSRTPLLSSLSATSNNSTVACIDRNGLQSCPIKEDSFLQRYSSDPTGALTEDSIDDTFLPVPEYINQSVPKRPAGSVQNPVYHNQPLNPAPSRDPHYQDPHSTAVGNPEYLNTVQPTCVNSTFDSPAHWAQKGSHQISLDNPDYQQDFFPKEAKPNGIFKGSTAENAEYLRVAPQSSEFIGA
# [7] = biological target: BRAF^V600E (Homo sapiens, UniProt P15056, V600E); assay: BRAF^V600E inhibitory assay (B-Raf (V600E) Kinase Assay); type: biochemical; details: read-out: BRAF^V600E inhibition IC50 ± SEM
# Chain of BRAF^V600E (P15056 whole entry V600E): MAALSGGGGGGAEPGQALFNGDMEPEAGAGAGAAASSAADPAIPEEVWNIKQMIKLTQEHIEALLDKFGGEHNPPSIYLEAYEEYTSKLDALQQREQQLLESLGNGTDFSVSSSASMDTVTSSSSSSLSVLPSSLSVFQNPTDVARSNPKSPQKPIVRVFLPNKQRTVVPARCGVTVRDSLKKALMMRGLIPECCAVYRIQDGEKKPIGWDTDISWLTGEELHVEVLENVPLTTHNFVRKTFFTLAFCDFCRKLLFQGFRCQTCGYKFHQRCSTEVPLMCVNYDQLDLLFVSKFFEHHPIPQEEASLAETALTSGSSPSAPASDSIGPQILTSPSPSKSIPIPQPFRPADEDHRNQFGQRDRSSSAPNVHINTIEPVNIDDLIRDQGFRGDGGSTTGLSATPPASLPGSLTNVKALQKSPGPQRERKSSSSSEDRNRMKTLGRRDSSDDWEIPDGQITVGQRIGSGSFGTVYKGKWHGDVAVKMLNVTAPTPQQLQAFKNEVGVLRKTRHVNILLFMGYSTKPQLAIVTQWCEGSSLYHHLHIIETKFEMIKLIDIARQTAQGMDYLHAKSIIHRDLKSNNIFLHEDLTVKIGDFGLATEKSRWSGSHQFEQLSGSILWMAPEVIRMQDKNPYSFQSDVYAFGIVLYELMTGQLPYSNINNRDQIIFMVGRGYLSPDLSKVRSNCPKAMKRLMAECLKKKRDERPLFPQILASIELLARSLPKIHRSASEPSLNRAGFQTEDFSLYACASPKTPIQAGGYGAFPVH
smiles,measurement,setting,value
"C/C(=N\Nc1ccc(C(=O)O)cc1)c1cnn(-c2cc(=O)[nH]c3ccc(C)cc23)c1C [Compound 4g, (E)-4-(2-(1-(5-methyl-1-(6-methyl-2-oxo-1,2-dihydroquinolin-4-yl)-1H-pyrazol-4-yl)ethylidene)hydrazineyl)benzoic acid]",viability at 0.4 µM,"[1]; Homo sapiens, MOLT-4, MOLT-4, MTT, 0.4uM",68.9%
same,viability at 1.6 µM,"[1]; Homo sapiens, MOLT-4, MOLT-4, MTT, 1.6uM",54.8%
same,viability at 6.3 µM,"[1]; Homo sapiens, MOLT-4, MOLT-4, MTT, 6.3uM",48.2%
same,viability at 25 µM,"[1]; Homo sapiens, MOLT-4, MOLT-4, MTT, 25uM",42.4%
same,viability at 100 µM,"[1]; Homo sapiens, MOLT-4, MOLT-4, MTT, 100uM",35.3%
same,IC50,"[1]; Homo sapiens, MOLT-4, MTT, read-out: Antiproliferative activity IC50 ± SEM, MOLT-4",6.17 ± 0.25 µM
same,% viability,"[1]; MOLT-4, MTT, 1.6uM, listed as Ws7, 1.6 µM",54.85%
same,% viability,"[1]; MOLT-4, MTT, 6.3uM, listed as Ws7, 6.3 µM",48.2%
same,% viability,"[1]; MOLT-4, MTT, 25uM, listed as Ws7, 25 µM",42.37%
same,% viability,"[1]; MOLT-4, MTT, 100uM, listed as Ws7, 100 µM",35.35%
same,"viability at 24 h, 0.4 µM","[2]; WI38, 0.4uM (log conc. -0.41)",80.4%
same,"viability at 24 h, 1.6 µM","[2]; WI38, 1.6uM (log conc. 0.19)",70.2%
same,"viability at 24 h, 6.3 µM","[2]; WI38, 6.3uM (log conc. 0.8)",62.8%
same,"viability at 24 h, 25 µM","[2]; WI38, 25uM (log conc. 1.4)",51.6%
same,"viability at 24 h, 100 µM","[2]; WI38, 100uM (log conc. 2)",44.1%
same,IC50,"[3]; Homo sapiens, read-out: Antiproliferative activity IC50 ± SEM",37.6 ± 1.5 µM
same,% viability,"[3]; WI38, 0.4uM (log conc. -0.41), listed as Ws7, 0.4 µM",80.43%
same,% viability,"[3]; WI38, 1.6uM (log conc. 0.19), listed as Ws7, 1.6 µM",70.19%
same,% viability,"[3]; WI38, 6.3uM (log conc. 0.8), listed as Ws7, 6.3 µM",62.8%
same,% viability,"[3]; WI38, 25uM (log conc. 1.4), listed as Ws7, 25 µM",51.55%
same,% viability,"[3]; WI38, 100uM (log conc. 2), listed as Ws7, 100 µM",44.1%
same,viability at 0.4 µM,"[4]; Homo sapiens, T47D, T-47D, 0.4uM (log conc. -0.41)",68.5%
same,viability at 1.6 µM,"[4]; Homo sapiens, T47D, T-47D, 1.6uM (log conc. 0.19)",61.7%
same,viability at 6.3 µM,"[4]; Homo sapiens, T47D, T-47D, 6.3uM (log conc. 0.8)",55%
same,viability at 25 µM,"[4]; Homo sapiens, T47D, T-47D, 25uM (log conc. 1.4)",44.6%
same,viability at 100 µM,"[4]; Homo sapiens, T47D, T-47D, 100uM (log conc. 2)",34%
same,IC50,"[4]; Homo sapiens, T47D, read-out: Antiproliferative activity IC50 ± SEM, T-47D, MTT",9.71 ± 0.34 µM
same,% viability,"[4]; T-47D, 0.4uM (log conc. -0.41), listed as Ws7, 0.4 µM",68.49%
same,% viability,"[4]; T-47D, 1.6uM (log conc. 0.19), listed as Ws7, 1.6 µM",61.66%
same,% viability,"[4]; T-47D, 6.3uM (log conc. 0.8), listed as Ws7, 6.3 µM",55.01%
same,% viability,"[4]; T-47D, 25uM (log conc. 1.4), listed as Ws7, 25 µM",44.58%
same,% viability,"[4]; T-47D, 100uM (log conc. 2), listed as Ws7, 100 µM",33.98%
same,inhibition at 10 µM,"[5]; 786-0, Renal cancer 786-0, 10 μM",6.84%
same,inhibition at 10 µM,"[5]; A498, Renal cancer A498, 10 μM",< 5%
same,inhibition at 10 µM,"[5]; A549, Non-small cell lung cancer A549/ATCC, 10 μM",< 5%
same,inhibition at 10 µM,"[5]; ACHN, Renal cancer ACHN, 10 μM",< 5%
same,inhibition at 10 µM,"[5]; BT-549, Breast cancer BT-549, 10 μM",11.6%
same,inhibition at 10 µM,"[5]; CAKI-1, Renal cancer CAKI-1, 10 μM",10.3%
same,inhibition at 10 µM,"[5]; CCRF-CEM, Leukemia CCRF-CEM, 10 μM",6.98%
same,inhibition at 10 µM,"[5]; DU-145, Prostate cancer DU-145, 10 μM",< 5%
same,inhibition at 10 µM,"[5]; EKVX, Non-small cell lung cancer EKVX, 10 μM",7.01%
same,inhibition at 10 µM,"[5]; HCC 2998, Colon cancer HCC-2998, 10 μM",< 5%
same,inhibition at 10 µM,"[5]; HL-60, Leukemia HL-60(TB), 10 μM",< 5%
same,inhibition at 10 µM,"[5]; HOP-62, Non-small cell lung cancer HOP-62, 10 μM",6.86%
same,inhibition at 10 µM,"[5]; HOP-92, Non-small cell lung cancer HOP-92, 10 μM",93.9%
same,inhibition at 10 µM,"[5]; HT-29, Colon cancer HT29, 10 μM",< 5%
same,inhibition at 10 µM,"[5]; Hs-578T, Breast cancer HS 578T, 10 μM",7.48%
same,inhibition at 10 µM,"[5]; IGROV-1, Ovarian cancer IGROV1, 10 μM",< 5%
same,inhibition at 10 µM,"[5]; K562, Leukemia K-562, 10 μM",< 5%
same,inhibition at 10 µM,"[5]; LOX IMVI, Melanoma LOX IMVI, 10 μM",5.11%
same,inhibition at 10 µM,"[5]; Leukemia SR, 10 μM",11.4%
same,inhibition at 10 µM,"[5]; MCF7, Breast cancer MCF7, 10 μM",9.62%
same,inhibition at 10 µM,"[5]; MDA-MB-231, Breast cancer MDA-MB-231/ATCC, 10 μM",8.94%
same,inhibition at 10 µM,"[5]; MDA-MB-435, Melanoma MDA-MB-435, 10 μM",< 5%
same,inhibition at 10 µM,"[5]; MDA-MB-468, Breast cancer MDA-MB-468, 10 μM",16.8%
same,inhibition at 10 µM,"[5]; Melanoma MALM-3M, 10 μM",16.7%
same,inhibition at 10 µM,"[5]; NCI-H23, Non-small cell lung cancer NCI-H23, 10 μM",< 5%
same,inhibition at 10 µM,"[5]; NCI-H226, Non-small cell lung cancer NCI-H226, 10 μM",9.91%
same,inhibition at 10 µM,"[5]; NCI-H322M, Non-small cell lung cancer NCI-H322M, 10 μM",< 5%
same,inhibition at 10 µM,"[5]; NCI-H460, Non-small cell lung cancer NCI-H460, 10 μM",< 5%
same,inhibition at 10 µM,"[5]; NCI-H522, Non-small cell lung cancer NCI-H522, 10 μM",10.6%
same,inhibition at 10 µM,"[5]; NCI/ADR-RES, Ovarian cancer NCI/ADR-RES, 10 μM",< 5%
same,inhibition at 10 µM,"[5]; OVCAR-4, Ovarian cancer OVCAR-4, 10 μM",5.43%
same,inhibition at 10 µM,"[5]; OVCAR-8, Ovarian cancer OVCAR-8, 10 μM",< 5%
same,inhibition at 10 µM,"[5]; Prostate cancer PC-3, 10 μM",11.2%
same,inhibition at 10 µM,"[5]; RPMI-8226, Leukemia RPMI-8226, 10 μM",14.9%
same,inhibition at 10 µM,"[5]; RXF 393, Renal cancer RXF 393, 10 μM",6.27%
same,inhibition at 10 µM,"[5]; SF-539, CNS Cancer SF-539, 10 μM",< 5%
same,inhibition at 10 µM,"[5]; SK-MEL-2, Melanoma SK-MEL-2, 10 μM",< 5%
same,inhibition at 10 µM,"[5]; SK-MEL-28, Melanoma SK-MEL-28, 10 μM",< 5%
same,inhibition at 10 µM,"[5]; SK-OV-3, Ovarian cancer SK-OV-3, 10 μM",5.67%
same,inhibition at 10 µM,"[5]; SN12C, Renal cancer SN12C, 10 μM",7.44%
same,inhibition at 10 µM,"[5]; SNB-75, CNS Cancer SNB-75, 10 μM",8.08%
same,inhibition at 10 µM,"[5]; TK-10, Renal cancer TK-10, 10 μM",< 5%
same,inhibition at 10 µM,"[5]; U-251, CNS Cancer U251, 10 μM",< 5%
same,inhibition at 10 µM,"[5]; UACC-62, Melanoma UACC-62, 10 μM",8.46%
same,inhibition at 10 µM,"[5]; UACC-257, Melanoma UACC-257, 10 μM",< 5%
same,inhibition at 10 µM,"[5]; UO-31, Renal cancer UO-31, 10 μM",32.1%
same,%inh,[6]; conc 0.01 (log -2),21%
same,%inh,[6]; conc 0.1 (log -1),44.2%
same,%inh,[6]; conc 1 (log 0),71.4%
same,%inh,[6]; conc 10 (log 1),86.3%
same,%inh,[6]; conc 100 (log 2),94.5%
same,IC50,[6]; read-out: EGFR inhibition IC50 ± SEM,0.194 ± 0.007 µM
same,IC50,[7],0.194 ± 0.008 µM
